# Assay results published in patent US6291247A, “Methods of screening for factors that disrupt neurotrophin conformation and reduce neurotrophin biological activity” (priority 1996, dated 2001).
# Columns and labels:
# NGF = target: T1, NGF (Mus musculus, UniProt P01139); assay: NGF protomer crosslinking with BS3 (NGF conformation), metal ions; type: biochemical
# T1 construct: homodimer
# Description: For crosslinking NGF […], 0.4 mM BS^3 was added to the mixture and incubated for 30 minutes at 25° C. […] For CD studies, NGF (50 μg/ml) was dissolved in 50 mM Tris-HCl buffer and spectra recorded using a computer controlled Jasco J-600 spectropolarimeter. Samples were acquired in the absence or presence of Zn^2+ (100 μM) at 22° C. in a 2 mm quartz cell averaged over eight scans. Modification of His residues by DEPC was carried out as previously described, where the molar excess of DEPC added and the extent of reaction was determined by evaluating the loss of binding activity of the modified product.
# p75^NTR and TrkA [1] = target: T2, p75^NTR and TrkA (Mus musculus, UniProt P01139); assay: Binding of 125I-NGF to PC12 cells (p75NTR + TrkA); design: species or system rat; conditions: 100 μM, 125I-NGF; 120 min
# T2 construct: these cells express both NGF receptor types; endogenous in cells; host or cells: PC12 rat pheochromocytoma cells
# Description: (§1) PC12 cells were grown in RPMI with 10% heat inactivated donor horse serum and 5% fetal calf serum. […] The tubes were incubated for 2 hr at 4° C. and 100 μl aliquots (providing triplicate data points for each sample) were transferred to 400 μl microcentrifuges containing 200 μl of 10% glycerol in HKR. Tubes were centrifuged for 2 minutes at 5,000 rpm, the tip containing the cell pellet cut off and radioactivity bound to the cells was determined.
# p75^NTR and TrkA [2] = system: T3, p75^NTR and TrkA; assay: Binding of 125I-NGF to PC12 cells (p75NTR + TrkA); design: species or system rat
# T3 construct: these cells express both NGF receptor types; endogenous in cells; host or cells: PC12 rat pheochromocytoma cells
# Description: as §1
# PC12 cells [3] = assay: Toxicity to PC12 cells; type: cell-based, rat; conditions: 100 μM
# Description: (§2) Effects of divalent ions on NGF mediated survival and toxicity was evaluated using a colorimetric assay for the lysosomal enzyme acid phosphatase to determine cell number (Connolly, D. T., Knight, M. B., Harakas, N. K, Wittwer, A. J. & Feder, J. Determination of the number of endothelial cells in culture using an acid phosphatase assay. Anal. Biochem. 152, 136-140 (1986); Ueda, Y., Walsh, E., Nakanishi H. & Yoshida, K. A. colorometric assay method for the evaluation of neurotrophic activity in vitro. Neurosci. Lett. 165, 203-207 (1994)). […] To evaluate toxicity, the cells were seeded and maintained without NGF in RPMI with 10% heat inactivated donor horse serum and 5% fetal calf serum in the presence of additives. Loss in viable cell number was determined and expressed as a percent of control. NGF rescues PC12 cells from cell death in serum-free medium(Greene, L. A. Nerve growth factor prevents the death and stimulates neuronal differentiation of clonal PC12 pheochromocytoma cells in serum-free medium. J. Cell Biol. 78, 747-755 (1978)). NGF-dependent survival was assessed by harvesting PC12 cells in balanced salt solution followed with washing by 4 cycles of suspension and centrifugation in serum-free RPMI prior to seeding in 96 well plates. After incubation with additives, medium was removed from the wells and cells washed once with 200 μl PBS. Buffer containing 0.1M sodium acetate pH 5.5, 0.1% Triton X-100 and 10 mM p-nitrophenyl phosphate (Sigma 104 phosphatase substrate) was added to each well (100 μl). Plates were incubated at 37° C. for 3 hours. The reaction was stopped by the addition of 10 μl/well of 1N sodium hydroxide and the color development measured at 405 nm using a microplate reader. The relationship between cell number and enzyme activity was linear over the range 1000 to 15,000 cells.
# (§3) To explore the ability of other transition metals to influence the biological activities of NGF, a series of cations known to mimic in certain respects the binding of zinc to proteins were tested. […] For this reason these ions were not tested in NGF- dependant growth phenomena. […] As these studies appeared to indicate potentially complex results upon metal ions binding to NGF, a receptor crosslinking system where specific receptor types could be identified was utilized.
# p75^NTR /TrkA [4] = assay: Receptor crosslinking of 125I-NGF with transition metal ions (receptor selectivity); type: binding
# Description: as §3
# p75^NTR /TrkA [5] = target: p75^NTR /TrkA (Mus musculus, UniProt P01139); assay: as above; type: binding; conditions: 100 μM
# Description: as §3
# PC12 cells [6] = assay: NGF-dependent survival of PC12 cells; type: cell-based, rat
# Description: as §2, §3
# T1 sequence (P01139 122-239): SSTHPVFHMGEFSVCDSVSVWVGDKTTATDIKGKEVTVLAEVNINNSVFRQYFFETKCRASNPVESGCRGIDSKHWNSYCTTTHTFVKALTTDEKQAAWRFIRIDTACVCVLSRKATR
# Chain of p75^NTR /TrkA (P01139 122-239): as above
# Chain of p75^NTR /TrkA (P07174 30-425 partner): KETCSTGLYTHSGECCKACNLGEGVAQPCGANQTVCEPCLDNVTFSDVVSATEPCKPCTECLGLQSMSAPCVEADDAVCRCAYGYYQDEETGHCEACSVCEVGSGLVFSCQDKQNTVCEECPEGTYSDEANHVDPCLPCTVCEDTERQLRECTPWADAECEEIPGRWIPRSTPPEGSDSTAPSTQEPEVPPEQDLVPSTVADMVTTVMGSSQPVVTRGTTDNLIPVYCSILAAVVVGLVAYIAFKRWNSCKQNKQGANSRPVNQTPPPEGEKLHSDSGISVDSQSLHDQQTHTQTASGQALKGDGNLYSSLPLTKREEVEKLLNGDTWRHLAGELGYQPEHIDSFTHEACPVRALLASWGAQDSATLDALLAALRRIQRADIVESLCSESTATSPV
# Chain of p75^NTR /TrkA (P35739 33-799 partner): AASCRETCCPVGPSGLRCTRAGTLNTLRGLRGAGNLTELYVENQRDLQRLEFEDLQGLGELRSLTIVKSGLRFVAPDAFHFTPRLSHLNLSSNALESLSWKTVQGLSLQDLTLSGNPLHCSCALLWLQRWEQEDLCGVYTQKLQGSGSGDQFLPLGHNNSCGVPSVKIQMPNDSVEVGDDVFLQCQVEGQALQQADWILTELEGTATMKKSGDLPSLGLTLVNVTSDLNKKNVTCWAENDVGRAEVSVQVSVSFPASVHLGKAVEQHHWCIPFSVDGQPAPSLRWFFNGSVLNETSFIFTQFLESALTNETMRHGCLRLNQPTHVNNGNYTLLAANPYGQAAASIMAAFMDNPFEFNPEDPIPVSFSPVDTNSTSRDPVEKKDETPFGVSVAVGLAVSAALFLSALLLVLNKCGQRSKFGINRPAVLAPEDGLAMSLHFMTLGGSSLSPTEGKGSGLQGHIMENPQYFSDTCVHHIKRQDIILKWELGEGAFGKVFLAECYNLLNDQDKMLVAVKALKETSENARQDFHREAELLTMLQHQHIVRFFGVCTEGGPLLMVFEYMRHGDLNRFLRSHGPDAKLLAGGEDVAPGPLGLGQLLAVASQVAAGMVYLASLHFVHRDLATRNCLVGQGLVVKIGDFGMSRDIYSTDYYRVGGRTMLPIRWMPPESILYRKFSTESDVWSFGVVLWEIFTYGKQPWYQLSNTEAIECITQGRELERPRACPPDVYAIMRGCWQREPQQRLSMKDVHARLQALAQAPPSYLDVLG
# T2 sequence (P01139 122-239): as the sequence (P01139 122-239) above
# T3 sequence (P01139 122-239): as above
# Chain of p75^NTR /TrkA (Mus musculus, UniProt P01139) (P01139 122-239): as above
# Chain of p75^NTR /TrkA (Mus musculus, UniProt P01139) (P07174 30-425 partner): as the sequence (P07174 30-425 partner) above
# Chain of p75^NTR /TrkA (Mus musculus, UniProt P01139) (P35739 33-799 partner): as the sequence (P35739 33-799 partner) above
structure (smiles),measurement,setting,value
[Ni+2] [Ni^2+],Effect on conformation of NGF in protomer crosslinking,NGF,did not appear to have an effect on the conformation
same,NGF Protomer Conformation (active/inactive),NGF; 100 μM,inactive
same,Total Binding to PC12 cells,p75^NTR and TrkA [1],69 ± 18 % control
same,Prevention of 125I-NGF binding to PC12 cells,p75^NTR and TrkA [2],did not show appreciable inhibition
same,Toxicity (PC12 cell viability),PC12 cells [3],100 ± 19 % control
same,Blocking of NGF binding to TrkA and p75NTR in receptor crosslinking,p75^NTR /TrkA [4],selective for blocking the binding of NGF to TrkA but did not prevent the binding of NGF to p75^NTR
same,Receptor Selectivity (p75NTR/TrkA),p75^NTR /TrkA [5],TrkA only
same,Survival @ 50 pM NGF,"PC12 cells [6]; 100 μM, 50 pM NGF",15 ± 13 % control
same,Survival @ 1 nM NGF,"PC12 cells [6]; 100 μM, 1 nM NGF",23 ± 10 % control
same,Antagonism of NGF-dependent survival,PC12 cells [6]; high (1 nM) or low (50 pM) NGF,ability to antagonize the NGF-dependant survival
